# Data as given in paper PMC4865847, “Putative histidine kinase inhibitors with antibacterial effect against multi-drug resistant clinical isolates identified by in vitro and in silico screens” (Scientific Reports, 2016).
# Like-named read-outs stand apart in the source and are kept apart here.
# Experiments:
# Staphylococcus aureus = assay: Antibacterial susceptibility testing (MIC/MBC), S. aureus; assay type: cell-based
# Protocol: (§1) Minimal inhibitory concentrations (MICs) were determined following a standard double-dilution method. […] For S. pneumoniae MICs were determined by adapting the standard double-dilution method to anaerobic conditions and of this microorganism (use of Todd Hewitt Yeast extract with 200 U/mL of catalase and continuous monitoring of growth).
# S. aureus PhoR (PhoR^S) [1] = biological target: T1, S. aureus PhoR (PhoR^S) (Staphylococcus aureus, UniProt Q2FXN7); assay: Aggregation analysis by native-PAGE, PhoR^S; details: 2 mM (S5 and S6 5 mM), 10% DMSO
# T1 sequence (Q2FXN7 entry or part of it): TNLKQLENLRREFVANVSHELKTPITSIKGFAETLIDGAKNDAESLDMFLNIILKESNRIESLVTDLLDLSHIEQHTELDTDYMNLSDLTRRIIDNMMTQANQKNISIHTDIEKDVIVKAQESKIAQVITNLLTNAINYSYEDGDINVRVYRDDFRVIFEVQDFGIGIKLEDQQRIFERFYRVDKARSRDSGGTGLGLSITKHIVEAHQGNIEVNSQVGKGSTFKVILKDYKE
# Protocol: E. coli PhoR and EnvZ, and S. aureus PhoR ([…], final concentration) were prepared in kinase buffer. […] DMSO in the assays was maintained to a final concentration 10% (v/v). After 30 min of incubation at room temperature Native polyacrylamide gel electrophoresis (Native-PAGE) loading buffer was added and samples loaded. Coomassie blue staining was used for protein visualization.
# Acinetobacter baumannii = assay: Antibacterial susceptibility testing (MIC), A. baumannii; assay type: cell-based
# Protocol: (§2) Bacterial strains used in this study for antibacterial susceptibility testing (Table S5) were propagated using standard microbiological procedures. Minimal inhibitory concentrations (MICs) were determined following a standard double-dilution method. MICs were recorded as the lowest concentration of the compound where no visible growth was observed. After plating the dilutions around the MIC or growing them in fresh MH media, minimal bactericidal concentration (MBC) was recorded as the lowest concentration of the compound at which no colonies were formed or no growth was observed, respectively. For S. pneumoniae MICs were determined by adapting the standard double-dilution method to anaerobic conditions and of this microorganism (use of Todd Hewitt Yeast extract with 200 U/mL of catalase and continuous monitoring of growth).
# Streptococcus pneumoniae = assay: Antibacterial susceptibility testing (MIC), S. pneumoniae; assay type: cell-based; details: strain 49619
# Protocol: as §2
# Hemolysis assay = assay type: cell-based; details: human
# Protocol: Hemolytic activity against human erythrocytes taken from a healthy donor was measured as previously described. The hemolysis experiments were carried out in accordance with the guidelines of the United Arab Emirates University (UAEU) Research Ethics Review Board. All experimental protocols were approved by the Research Ethics Review Board of UAEU and informed consent was obtained from all donors.
# Streptococcus suis = assay: Antibacterial susceptibility testing (MIC), S. suis; assay type: cell-based; details: Streptococcus suis, read-out: MIC Streptococcus suis 3881/S10, strain 3881/S10
# Protocol: as §2
# E. coli PhoR (PhoR^E) = biological target: T2, E. coli PhoR (PhoR^E) (Escherichia coli, UniProt P08400); assay: In vitro autophosphorylation kinase assay with γ-32P-ATP, PhoR^E; assay type: biochemical
# T2 construct: The catalytic portion (DHp and CA domain) of E. coli PhoR (PhoR^E); made in house; host or cells: E. coli RIL
# T2 sequence (P08400 210-425): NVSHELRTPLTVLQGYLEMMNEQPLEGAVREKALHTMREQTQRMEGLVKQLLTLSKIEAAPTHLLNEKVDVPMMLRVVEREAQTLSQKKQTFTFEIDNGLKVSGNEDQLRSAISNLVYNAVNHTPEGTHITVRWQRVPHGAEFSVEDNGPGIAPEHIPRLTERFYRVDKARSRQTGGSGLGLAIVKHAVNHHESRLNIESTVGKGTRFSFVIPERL
# Summary of the method: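 Autophosphorylation, initiated with γ-32P-ATP (0.1 μCi/μl; 0.03–0.06 μM ATP final), quenched with SDS/EDTA sample buffer, resolved by SDS-PAGE and quantified by phosphor-imaging. ≈4 μM kinase, fragments up to 20 mM, pH 8.5 Tris buffer with Mg2+; DMSO-matched ligand-free controls.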
# [2] = system: Staphylococcus epidermidis; assay: Antibacterial susceptibility testing (MIC/MBC), S. epidermidis; assay type: cell-based
# Protocol: as §1
# S. aureus PhoR (PhoR^S) [3] = biological target: T1, S. aureus PhoR (PhoR^S); assay: In vitro autophosphorylation kinase assay with γ-32P-ATP, PhoR^S; assay type: biochemical; details: read-out: inhibition of PhoR^S autophosphorylation
# Summary of the method: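 ≈4 μM HK incubated with up to 20 mM fragment in 50 mM Tris HCl pH 8.5, 50 mM KCl, 5 mM MgCl2, 0.5 mM EDTA, 0.1 mM DTT; started with γ-32P-ATP (0.03–0.06 μM ATP final). Quenched with SDS sample buffer/EDTA, run on SDS-PAGE unheated, phosphoprotein quantified by phosphor-imaging.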
# Klebsiella pneumoniae = assay: Antibacterial susceptibility testing (MIC), K. pneumoniae; assay type: cell-based
# Protocol: as §2
# [4] = system: Stenotrophomonas maltophilia; assay: Antibacterial susceptibility testing (MIC), S. maltophilia; assay type: cell-based
# Protocol: as §2
compound,measurement,setting,value
"CC(C)(C)c1ccc(O)c(CNc2ccccc2)c1 [S1.14, 4-tert-butyl-2-[(phenylamino)methyl]phenol]",MIC,"Staphylococcus aureus; Staphylococcus aureus, ATCC reference strain 25293, read-out: MIC S. aureus 25293",125 µg/mL
same,MBC,"Staphylococcus aureus; Staphylococcus aureus, DSM20231, strain DSM 20231, read-out: MBC S. aureus DSM 20231",500 µg/mL
same,MIC,"Staphylococcus aureus; Staphylococcus aureus, DSM20231, strain DSM 20231, read-out: MIC S. aureus DSM 20231",500 µg/mL
same,MIC,"Staphylococcus aureus; Staphylococcus aureus, MRSA clinical isolate 127/08, read-out: MIC S. aureus 127/08",250 µg/mL
same,MIC,"Staphylococcus aureus; Staphylococcus aureus, MRSA clinical isolate 145/08, read-out: MIC S. aureus 145/08",250 µg/mL
same,MIC,"Staphylococcus aureus; Staphylococcus aureus, MRSA clinical isolate 274/08, read-out: MIC S. aureus 274/08",250 µg/mL
same,MIC,"Staphylococcus aureus; Staphylococcus aureus, MRSA, MRSA clinical isolate S908, read-out: MIC S. aureus S908",250 µg/mL
same,MIC,"Staphylococcus aureus; Staphylococcus aureus, MRSA, MRSA clinical isolate T4/6, read-out: MIC S. aureus T4/6",250 µg/mL
same,MIC,"Staphylococcus aureus; Staphylococcus aureus, MRSA, MRSA clinical isolate V4180, read-out: MIC S. aureus V4180",250 µg/mL
same,MIC,"Staphylococcus aureus; Staphylococcus aureus, MRSA, summary over susceptible MRSA clinical isolates, read-out: MICs for MRSA strains",250 µg/mL
same,MIC S. aureus DSM 20231,Staphylococcus aureus; strain DSM 20231,500^¶ μg/ml
same,bacteriostatic or bactericidal for S. aureus DSM 20231,Staphylococcus aureus; strain DSM 20231,bactericidal
same,"HK aggregation, PhoR^S",S. aureus PhoR (PhoR^S) [1],do not cause HK aggregation
same,MIC,"Acinetobacter baumannii; MDR clinical isolate NM8, read-out: MIC A. baumannii NM8",500 µg/mL
same,MIC,"Acinetobacter baumannii; MDR clinical isolate NM35, read-out: MIC A. baumannii NM35",500 µg/mL
same,MIC,"Acinetobacter baumannii; MDR clinical isolate NM75, read-out: MIC A. baumannii NM75",500 µg/mL
same,MIC,"Acinetobacter baumannii; MDR clinical isolate NM109, read-out: MIC A. baumannii NM109",250 µg/mL
same,MIC,"Acinetobacter baumannii; MDR clinical isolate NM124, read-out: MIC A. baumannii NM124",250 µg/mL
same,MIC,"Acinetobacter baumannii; summary over strains, read-out: MICs for A. baumannii strains",250 to 500 µg/mL
same,MIC,Streptococcus pneumoniae,> 500 µg/mL
same,HC50,Hemolysis assay,> 500 µg/mL
same,MIC,Streptococcus suis,125 µg/mL
same,inhibition at 2000 µM,"E. coli PhoR (PhoR^E); 2 mM, 30 sec, compared to negative control",> 40%
same,IC50,"E. coli PhoR (PhoR^E); autophosphorylation, one time point (30 sec), 10% DMSO, read-out: IC50 PhoR^E",> 2000 µM
same,MBC,"[2]; Staphylococcus epidermidis, DSM20044, strain DSM 20044",500 µg/mL
same,MIC,"[2]; Staphylococcus epidermidis, DSM20044, strain DSM 20044, read-out: MIC S. epidermidis DSM 20044",500 µg/mL
same,MIC,"[2]; Staphylococcus epidermidis, clinical isolate T7/3, read-out: MIC S. epidermidis T7/3",250 µg/mL
same,MIC,"[2]; Staphylococcus epidermidis, clinical isolate T37/8, read-out: MIC S. epidermidis T37/8",500 µg/mL
same,MIC,"[2]; Staphylococcus epidermidis, clinical isolate T6119, read-out: MIC S. epidermidis T6119",500 µg/mL
same,MIC,"[2]; Staphylococcus epidermidis, strain RP62A (biofilm producer), read-out: MIC S. epidermidis RP62A",> 500 µg/mL
same,MIC,"[2]; Staphylococcus epidermidis, strain RP62A/1 (non-biofilm producer), read-out: MIC S. epidermidis RP62A/1",500 µg/mL
same,MIC,"[2]; Staphylococcus epidermidis, summary over strains, read-out: MICs for the S. epidermidis strains",250 to 500 µg/mL
same,MIC S. epidermidis DSM 20044,[2]; strain DSM 20044,500^¶ μg/ml
same,bacteriostatic or bactericidal for S. epidermidis DSM 20044,[2]; strain DSM 20044,bactericidal
same,inhibition at 2000 µM,S. aureus PhoR (PhoR^S) [3],> 75%
same,MIC,"Klebsiella pneumoniae; Klebsiella pneumoniae, ATCC700603, strain ATCC 700603",> 500 µg/mL
same,MIC K. pneumoniae ATCC700603,Klebsiella pneumoniae; strain ATCC 700603,>500 µg/mL
same,MIC,"[4]; clinical isolate B5/5, read-out: MIC S. maltophilia B5/5",500 µg/mL
same,MIC,"[4]; clinical isolate B6/2, read-out: MIC S. maltophilia B6/2",500 µg/mL
same,MIC,"[4]; clinical isolate B32/1, read-out: MIC S. maltophilia B32/1",500 µg/mL
same,MIC,"[4]; summary over strains, read-out: MICs for S. maltophilia strains",250 to 500 µg/mL
